# Assay results: PubChem BioAssay (NCI)
# “And” between values parts separate entries of the source, which are not always exact repeats. Identical values can stand only once.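 Briefly, cells in 96-well plates were exposed to five compound concentrations for 48 h, and endpoints were estimated by linear interpolation. GI50 = concentration required for 50% inhibition of growth. At the TGI there is no net growth.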
# How the values were obtained:
# Assay in all cases: DTP human tumour cell line panel, 48 h
# [1] = test system: A549 NSCLC
# [2] = test system: BT-549 breast
# [3] = test system: CCRF-CEM leukemia
# [4] = test system: HL-60(TB) leukemia
# [5] = test system: IGROV1 ovarian
# [6] = test system: NCI/ADR-RES ovarian
# [7] = test system: OVCAR-3 ovarian
# [8] = test system: OVCAR-4 ovarian
# [9] = test system: RPMI-8226 leukemia
# [10] = test system: UO-31 renal
Compound,GI50 [1],TGI [1],GI50 [2],TGI [2],GI50 [3],TGI [3],GI50 [4],TGI [4],GI50 [5],TGI [5],GI50 [6],TGI [6],GI50 [7],TGI [7],GI50 [8],TGI [8],GI50 [9],TGI [9],GI50 [10],TGI [10]
CN(C)CCCn1c2c(c3ccc(N4CCNCC4)cc3c1=O)C(=O)c1ccccc1-2,0.224 µM,2.23 µM,1.27 µM,2.77 µM,0.335 µM,1.94 µM,1.17 µM,3.05 µM,0.844 µM,3.73 µM,1.16 µM,2.83 µM,1.05 µM,3.07 µM,0.343 µM,1.88 µM,0.271 µM,0.978 µM,0.765 µM,2.56 µM
COc1cnc2c(c1)C(=O)c1c-2n(CCCN2CCNCC2)c(=O)c2cc(F)ccc12,0.0164 µM,0.219 µM,1.25 µM,4.32 µM,0.0421 µM,1.06 µM,0.0927 µM,0.682 µM,0.478 µM,2.34 µM,0.865 µM,4.43 µM,0.335 µM,1.63 µM,0.892 µM,2.49 µM,0.0505 µM,0.458 µM,0.133 µM,1.12 µM
CC(=O)Nc1ccc(S(=O)(=O)N2C(=O)CCC2C(=O)Nc2ccccc2)cc1 (stereo not drawn),0.721 µM,19.2 µM,1.57 µM,14.6 µM,0.433 µM,14.2 µM,1.64 µM,15.2 µM,2.32 µM,26.9 µM,1.61 µM,29.1 µM,1.75 µM,11.8 µM,0.698 µM,10.8 µM,0.83 µM,15 µM,0.55 µM,16.5 µM
c1c[nH]c(CN2CCN(Cc3ncc[nH]3)CC2)n1,,> 100 µM,,> 100 µM,,> 100 µM,,> 100 µM,,> 100 µM,,> 100 µM,,> 100 µM,,> 100 µM,,> 100 µM,,> 100 µM
CC1SC(c2ccc(OCc3ccccc3)cc2)N(NC(=O)C(O)(c2ccccc2)c2ccccc2)C1=O (stereo not drawn),4.68 µM,20.8 µM,5.45 µM,22.4 µM,2.1 µM,5.69 µM,1.85 µM,5.02 µM,2.4 µM,11.5 µM,3.72 µM,17.8 µM,2.36 µM,6.1 µM,5.13 µM,36 µM,2.05 µM,6.13 µM,3.74 µM,21.3 µM
CC[C@@]12CC(C(=O)OC)=C3Nc4ccccc4[C@@]34CCN(C[C@H]3O[C@H]31)[C@@H]24,58.3 µM,> 100 µM,43.5 µM,> 100 µM,33.9 µM,> 100 µM,24.7 µM,81 µM,52.3 µM,> 100 µM,31 µM,> 100 µM,78.5 µM,> 100 µM,82.5 µM,> 100 µM,23.5 µM,> 100 µM,34.9 µM,> 100 µM
CC(C)OC(=O)OCOP(=O)(OCOC(=O)OC(C)C)C1CCCN(O)C1=O (stereo not drawn),4.01 µM,> 100 µM,0.468 µM,11.7 µM,0.446 µM,> 100 µM,2.48 µM,> 100 µM,0.565 µM,12.6 µM,2.6 µM,> 100 µM,1.47 µM,> 100 µM,2.32 µM,> 100 µM,0.737 µM,14.5 µM,0.197 µM,68.1 µM
CCCN1CCCC(c2ccc(Nc3nc(Nc4cc(F)ccc4C(N)=O)c4cc[nH]c4n3)c(OC)c2)C1 (stereo not drawn),0.129 µM,4.16 µM,3.74 µM,7.4 µM,1.55 µM,18.4 µM,0.0156 µM,4.82 µM,1.47 µM,6.12 µM,3.57 µM,9.92 µM,2.92 µM,6 µM,3.03 µM,6.13 µM,3.65 µM,10.8 µM,1.27 µM,5.88 µM
Cc1ccccc1C1N=C2Oc3ccccc3C=C2C(=O)N1 (stereo not drawn),3.55 µM,> 100 µM,7.32 µM,> 100 µM,4.63 µM,> 100 µM,2.42 µM,17.7 µM,9.85 µM,> 100 µM,2.96 µM,> 87.8 µM,0.621 µM,2.69 µM,11.8 µM,> 100 µM,62.9 µM,> 100 µM,7.5 µM,> 100 µM
CN1CC[C@H](N(C)C(=O)N2CC(c3cc(F)ccc3F)=C[C@@]2(CO)c2ccccc2)[C@H](F)C1,0.0383 µM,> 100 µM,0.0421 µM,37.7 µM,0.017 µM,> 100 µM,0.0337 µM,> 100 µM,,> 100 µM,0.0205 µM,1.3 µM,0.0196 µM,,20.5 µM,> 100 µM,0.0294 µM,40.8 µM,7.74 µM,> 100 µM
CCn1nc(C#Cc2c(C)ccc3c(Nc4ccc(Cl)cc4)nccc23)c2c(N)ncnc21,4.58 µM,> 100 µM,5.27 µM,> 100 µM,3.31 µM,> 100 µM,0.598 µM,> 100 µM,3.09 µM,> 100 µM,3.1 µM,10.7 µM,3.46 µM,> 100 µM,6.16 µM,53.5 µM,3.77 µM,> 100 µM,2.09 µM,> 100 µM
O=C(/C=C/c1ccccc1)c1ccccn1,,46.1 µM and > 100 µM,,37.4 µM and 52.4 µM,,45.4 µM and 57.6 µM,2.55 µM and 16.4 µM,53.6 µM and 84.8 µM,,22.8 µM and 37.9 µM,,54.5 µM and > 100 µM,,26.8 µM and 43.3 µM,,54.8 µM and 47.2 µM,5.71 µM and 15.9 µM,31.6 µM and 81.1 µM,,31 µM and 46.5 µM
COc1cccc(-c2cc(-c3ccc(Nc4nc(Nc5ccc(Cl)cc5)nc(Nc5ccc(Cl)cc5)n4)cc3)nc(N)c2C#N)c1,9.41 µM,> 100 µM,2.44 µM,10.9 µM,1.91 µM,11.5 µM,0.838 µM,8.23 µM,1.67 µM,4.62 µM,14.7 µM,> 100 µM,1.73 µM,3.53 µM,4.09 µM,> 100 µM,1.77 µM,> 27.9 µM,1.52 µM,4.31 µM
COc1cc(C(=O)N[C@@H]2CCCN(C)C2)ccc1Nc1ncc2c(n1)N(C1CCCC1)CC(C)(C)C(=O)N2C,0.0549 µM,5.18 µM,0.73 µM,18 µM,0.0349 µM,16.5 µM,0.0266 µM,0.0788 µM,0.396 µM,21.7 µM,0.344 µM,16.2 µM,0.0442 µM,16.1 µM,10.8 µM,23.4 µM,1.25 µM,19.4 µM,1.96 µM,16.1 µM
C=C(C)[C@@H]1CC[C@]2(C(=O)OC)CC[C@]3(C)[C@H](CC[C@@H]4[C@@]5(C)CC/C(=N\OCCC(=NCCC#N)NOCCC#N)C(C)(C)[C@@H]5CC[C@]43C)[C@@H]12,5.27 µM,> 50 µM,11.3 µM,> 50 µM,11.7 µM,> 50 µM,5.18 µM,24.9 µM,14.9 µM,> 50 µM,13.5 µM,> 50 µM,5.17 µM,15.8 µM,12.3 µM,> 50 µM,4.91 µM,42.7 µM,15.6 µM,> 50 µM
OC1(c2ccccc2)c2ccccc2N(c2ccccc2)c2ccc(Cl)cc21 (stereo not drawn),0.332 µM,1.3 µM,0.367 µM,1.29 µM,0.382 µM,13.7 µM,0.251 µM,0.739 µM,0.341 µM,1.15 µM,1.55 µM,6.23 µM,0.147 µM,0.304 µM,0.313 µM,1.39 µM,0.216 µM,0.862 µM,0.38 µM,1.51 µM
CC(C)c1c(C(=O)Nc2ccccc2)c(-c2ccccc2)c(-c2ccc(F)cc2)n1CC[C@@H](O)C[C@@H](O)CC(=O)O,56.5 µM,> 100 µM,15.6 µM,41.7 µM,21.4 µM,> 100 µM,20.9 µM,> 96.7 µM,22.2 µM,> 100 µM,40.8 µM,> 100 µM,33.1 µM,> 100 µM,27.8 µM,> 100 µM,16.6 µM,> 100 µM,30.2 µM,> 100 µM
FC(F)(F)c1ccc(-c2cnc(-c3nn[nH]n3)nc2NC2CCCCCC2)cc1,> 10 µM,> 10 µM,> 10 µM,> 10 µM,> 10 µM,> 10 µM,> 10 µM,> 10 µM,> 10 µM,> 10 µM,> 10 µM,> 10 µM,> 10 µM,> 10 µM,> 10 µM,> 10 µM,> 10 µM,> 10 µM,> 10 µM,> 10 µM
C=C1C(=O)O[C@H]2[C@H]1CC/C(COC(=O)NCc1ccc(Cn3c(=O)sn(CCCI)c3=O)cc1)=C\CC[C@@]1(C)O[C@@H]21,11.2 µM,25.3 µM,1.37 µM,2.84 µM,0.314 µM,2.18 µM,0.307 µM,2.71 µM,1.75 µM,3.84 µM,28.1 µM,> 100 µM,1.19 µM,2.43 µM,1.46 µM,3.11 µM,0.899 µM,3.57 µM,1.52 µM,2.94 µM
CNC(=S)N/N=C/CSC/C=N/NC(=S)NC,> 100 µM,> 100 µM,> 100 µM,> 100 µM,24.7 µM,> 100 µM,> 62.3 µM,> 100 µM,,> 100 µM,> 100 µM,> 100 µM,> 56.9 µM,> 100 µM,,> 100 µM,> 100 µM,> 100 µM,> 100 µM,> 100 µM
